Holding throughout (type): cell-based
For test [1], the system named is nerve cells derived from a rat fetus (cerebral cortex). As to the kind of experiment: Survival of cultured isolated nerve cells (cerebral cortex). Conditions: serum-free DF medium, 3 days culture, 1 and 10 μM beraprost sodium, student t-test vs control. From the text: (§1) Effect of improving survival rate of cultured isolated nerve cells:
(§2) The protective effect of beraprost sodium on nerve cells was examined by using nerve cells derived from a rat fetus. The cerebral cortex and hippocampus were obtained from the brain of a rat fetus of 17 days age, and isolated nerve cells were obtained therefrom by trypsin and pipetting treatment. The thus-obtained cells were inoculated into a 48-well culture plate coated with polylysine at a cell concentration of 5×10^3 cells/cm^2; followed by culture in a DF medium containing no serum at 37° C. for 3 days. After completion of culture, the cells were fixed by formalin, and the number of cells having axons was measured under a microscope. Beraprost sodium was added in an amount of each of 1, 10 and 100 μM during culture.
(§3) The results are shown in FIG. 1 (In the figure, * and ** represent student t-test results. *: p<0.05 vs control. **: p<0.01 vs control. This applies to the description below). The nerve cells gradually died and fell under the conditions in this example, beraprost sodium prevented falling of the nerve cells, and increased the number of survival cells depending upon the concentration.

In test [2] the test system is nerve cells derived from a rat fetus (hippocampus). As to the kind of experiment: Survival of cultured isolated nerve cells (hippocampus). Conditions: serum-free DF medium, 3 days culture, 10 μM beraprost sodium, student t-test vs control.
Description: as §1, §2, §3

For another test, the system named is Human glioma cells. Kind of test: Human glioma cell disorder due to peroxide (TBH). Here is the method:
Human glioma cells were separated from a patient of glioma (person), and then subjected to subculture in a 10% FCS-D-MEM medium (a Dulbecco's MEM medium (Nissui) containing 10% fetal calf serum). The cells were dispersed into single cells by trypsin-EDTA treatment, and then a 10% FCS-D-MEM medium was added to recover the cells, followed by centrifugation at 1200 rpm for 5 minutes. After centrifugation, the cells were prepared to 1×10^6 cells/ml by a HEPES buffer (Hanks' solution (Nissui) containing 15 mM HEPES, pH 7.4), and beraprost sodium (0.1 to 30 μM) was added to the cell solution, followed by incubation at 37° C. for 30 minutes. Then, […] of TBH (tertiary butyl hydroperoxide, Funakoshi) as a peroxide was added to the cell solution, followed by further incubation at 37° C. for 30 minutes. After reaction was stopped under ice cooling, some of the cells are collected, and divided into living cells and dead cells by trypan blue staining, followed by counting to determine the survival rate of the cells. The residual cells were centrifuged at 2000 rpm for 5 minutes, and then the amount of thiobarbituric acid reaction substance (TBARS amount) was measured according to the known method (Ohkawa, H., Ohnishi, N. and Yagi, K. Anal. Biochem., 95, 351-358 (1979)) and considered as an index of peroxidation of cell membrane lipid. […]

We go through one substance from US6340693B1, “Protective agent for nervous system structural cells” (Toray Industries, Inc., priority 1997, dated 2002).

Regarding beraprost sodium, the “number of survival cells (cells having axons)” value in test [1] and in test [2] was “increase was significant” throughout. For the same substance, the “decrease in the survival rate of cells by TBH treatment (trypan blue staining)” value with Human glioma cells (0.1 μM or more of beraprost sodium, 30 min pre-incubation, then 800 μm TBH for 30 min at 37° C.) is “significantly (p<0.01) suppressed”. For the same substance, the “TBARS amount as an index of peroxidation of cell membrane lipid (increase by TBH treatment)” value with Human glioma cells (beraprost sodium 0.1 to 30 μM, TBH-treated cells) is given as “did not affect such an increase”.
